The results in this text go back to PubChem BioAssay AID1963825 (Molecular Pharmacology Branch, DTP, NCI, 2024).

Values joined by “and” are separate entries in the source; they are usually repeats but may differ in a detail not shown here. Identical values can stand only once.

This experiment can be described thus: Anticancer human tumor 997537-175-T-J1-PDC patient-derived colon adenocarcinoma cell line growth inhibition [POLQ]. The conditions noted are these: 997537-175-T-J1-PDC complex spheroid viability, combination with POLQ inhibitors; for viability, T/C: stronger effect = lower value. As to the method: Multicellular complex tumor spheroid response to Polymerase (POL) inhibitors (novobiocin, ART-558, RP6685) in combination with a variety of drugs and investigational agents in selected tumor cell lines
The POL inhibitors (novobiocin, ART-558, and RP6685) were evaluated both individually and in combination with standard of care and investigational anticancer small molecules within a complex spheroid model of solid tumors. . Complex spheroids include a stromal component modeled by human endothelial cells (HUVEC) and fibroblasts modeled by human mesenchymal stem cells (MSCs). The concentration ranges selected for each drug and investigational agent were based upon clinically achievable concentrations if the clinical Cmax of the agent was known.
Compounds. The drugs and investigational agents: novobiocin (NSC847541), ART-558 (NSC835418), RP-6685 (NSC848927), peposertib (NSC802822), ceralasertib (NSC780249), elimusertib (NSC800525), camonsertib (NSC841442), AZD-1390 (NSC803789), olaparib (NSC753686), talazoparib (NSC767125), rucaparib (NSC756644), sotorasib (NSC818433), MRTX-1133 (NSC836407), SN-38 (NSC673596), topotecan (NSC609699), epotoside (NSC141540), doxorubicin (NSC123127), gemcitabine (NSC613327), 5-fluorouracil (NSC19893), paclitaxel (NSC125973), vemurafenib (NSC761431), MSA-2 (NSC828583), SN-011 (NSC837082), adavosertib (NSC754352), prexasertib (NSC758257), carboplatin (NSC241240) and oxaliplatin (NSC266046), were obtained from the National Cancer Institute (NCI) Developmental Therapeutics Program Chemical Repository (21). The FDA-approved anticancer drug set is available from the Developmental Therapeutics Program at https://dtp.cancer.gov/organization/dscb/obtaining/. […] The stock solutions were prepared in dimethyl sulfoxide (DMSO, Sigma-Aldrich, St. Louis, MO, cat. D2650), except for the platinum compounds which were prepared in saline (Quality Biological, Gaithersburg, MD, cat. 114-055-101), at 800-fold the tested concentration and stored at -70 degrees C prior to their use. All drugs and investigational agents were tested over a range starting from a high concentration at or near the clinical Cmax and decreasing in half-log increments. If the clinical Cmax for an agent had not been determined, the highest concentration tested was 10 microM, except for SN-38, which was tested at a high concentration of 1 microM.
Cell Culture. All cells were maintained in an incubator at 37 degrees C and 5% CO2 with 95% humidity. The PDC lines were cultured according to standard operating procedures established by the NCI PDMR (https://pdmr.cancer.gov). Table 3 of the manuscript, lists the cell lines along with the number of the three cell types plated to form the mct-spheroids and media for tumor cell growth. After thawing, all PDC lines, except 997537-175-T-J1-PDC and 415267-285-R-J2-PDC, were cultured in Matrigel-coated flasks prepared with a working solution of 1X Ham's F-12 nutrient mix, without supplementation (Thermo Fisher Scientific, cat. 11765054), 100 U/mL penicillin-streptomycin (Thermo Fisher Scientific, cat. 15140122), and 2.5% Matrigel (Corning Inc., Corning, NY, cat. 354248) for the first three passages. The two PDC lines 997537-175-T-J1-PDC and 415267-285-R-J2-PDC were cultured on uncoated flasks. The 857933-349-R-J2-PDC line was cultured in 6C/Colon 1B media containing advanced DMEM/F-12 (Thermo Fisher Scientific, cat. 12634028), 10 mM HEPES (Thermo Fisher Scientific, cat. 15630080), 1X GlutaMAX supplement (Thermo Fisher Scientific, cat. 35050061), 0.1 mg/mL primocin (InvivoGen, San Diego, CA, cat. ant-pm-2), 10% defined fetal bovine serum, heat inactivated (HyClone Laboratories Inc., Logan, UT, cat. SH30070.03HI), 50% L-WRN conditioned media (ATCC, cat. CRL-3276), 1.25 mM N-Acetyl-L-cysteine (Sigma-Aldrich, cat. A9165), 10 mM nicotinamide (Sigma-Aldrich, cat. N0636), 1X B-27 supplement (Thermo Fisher Scientific, cat. 17504044), 1X N-2 supplement (Thermo Fisher Scientific, cat. […]
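Also: luminescence signal used as a surrogate for viable cells; spheroids exposed to drugs for seven days before readout.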

What is called IC50 is the concentration at which inhibition is half-maximal. As usually defined, the viability, T/C is the result in the treated group divided by that in the control group, in per cent. For the compound `CC(C)n1c(=O)n(C)c2cnc3cc(F)c(-c4ccc(OCCCN5CCCCC5)nc4)cc3c21` + Cc1cccc(N(C)C(=O)C2C(O)CCN2c2nc(C)cc(C(F)(F)F)c2C#N)c1, the IC50 was more than 10 µM (curve of first compound, second compound 0.0316 µM); more than 10 µM (curve of first compound, second compound 0.1 µM); more than 10 µM (curve of first compound, second compound 0.316 µM); more than 10 µM (curve of first compound, second compound 1 µM); more than 10 µM (curve of first compound, second compound 3.16 µM); more than 10 µM (curve of first compound, second compound 10 µM). For the same compound, the viability, T/C (second compound 0.0316 µM, first compound 0.0316 µM) is 94.2%; the viability, T/C (second compound 0.0316 µM, first compound 0.1 µM) was 91.7%; the viability, T/C (second compound 0.0316 µM, first compound 0.316 µM) was 105%; the viability, T/C (second compound 0.0316 µM, first compound 1 µM) was 97.5%; the viability, T/C (second compound 0.0316 µM, first compound 3.16 µM) is 98.7%; the viability, T/C (second compound 0.0316 µM, first compound 10 µM) is 82.7%. For the same compound, the viability, T/C runs as follows: (second compound 0.1 µM, first compound 0.0316 µM) 96.7%; (second compound 0.1 µM, first compound 0.1 µM) 106%; (second compound 0.1 µM, first compound 0.316 µM) 90.8%; (second compound 0.1 µM, first compound 1 µM) 98.6%; (second compound 0.1 µM, first compound 3.16 µM) 103%; (second compound 0.1 µM, first compound 10 µM) 81.3%. The viability, T/C (second compound 0.316 µM, first compound 0.0316 µM) is 103%; the viability, T/C (second compound 0.316 µM, first compound 0.1 µM) is 99.9%; the viability, T/C (second compound 0.316 µM, first compound 0.316 µM) is 105%; the viability, T/C (second compound 0.316 µM, first compound 1 µM) is 103%; the viability, T/C (second compound 0.316 µM, first compound 3.16 µM) was 90.2%; the viability, T/C (second compound 0.316 µM, first compound 10 µM) is 87.7%. For the same compound, the viability, T/C is 87.2% (second compound 1 µM, first compound 0.0316 µM); 102% (second compound 1 µM, first compound 0.1 µM); 92.5% (second compound 1 µM, first compound 0.316 µM); 86% (second compound 1 µM, first compound 1 µM); 96.8% (second compound 1 µM, first compound 3.16 µM); 91.2% (second compound 1 µM, first compound 10 µM). In addition, the viability, T/C (second compound 3.16 µM, first compound 0.0316 µM) is 87.1%; the viability, T/C (second compound 3.16 µM, first compound 0.1 µM) was 96.3%; the viability, T/C (second compound 3.16 µM, first compound 0.316 µM) was 90.2%; the viability, T/C (second compound 3.16 µM, first compound 1 µM) was 80%; the viability, T/C (second compound 3.16 µM, first compound 3.16 µM) was 98.8%; the viability, T/C (second compound 3.16 µM, first compound 10 µM) is 73.6%. Also, the viability, T/C is 99.6% (second compound 10 µM, first compound 0.0316 µM); 101% (second compound 10 µM, first compound 0.1 µM); 86.8% (second compound 10 µM, first compound 0.316 µM); 83.8% (second compound 10 µM, first compound 1 µM); 91.8% (second compound 10 µM, first compound 3.16 µM); 76.6% (second compound 10 µM, first compound 10 µM).
On to `O=C(c1cc(Cc2n[nH]c(=O)c3ccccc23)ccc1F)N1CCN(C(=O)C2CC2)CC1`, for which the viability, T/C (compound 0.0316 µM) is 98.8% and 31.4% and 107%; the viability, T/C (compound 0.1 µM) was 107% and 36% and 112%; the viability, T/C (compound 0.316 µM) was 99.5% and 36% and 104%; the viability, T/C (compound 1 µM) is 87.5% and 38% and 104%; the viability, T/C (compound 3.16 µM) was 121% and 40.2% and 95.3%; the viability, T/C (compound 10 µM) was 89.1% and 32.3% and 94.1%.
Turning to `Nc1ccc(C#CCN(C(=O)Cc2ncc(C(F)(F)F)cc2C(F)(F)F)c2ccc(F)cc2)nn1`, the viability, T/C (compound 0.0316 µM) is 99.2% [middle of 13 runs]; the viability, T/C (compound 0.1 µM) was 97.2% [middle of 13 runs]; the viability, T/C (compound 0.316 µM) was 99.4% [middle of 13 runs]; the viability, T/C (compound 3.16 µM) was 98.6% [middle of 13 runs]; the viability, T/C (compound 10 µM) is 101% [middle of 13 runs]. Also, the IC50 (compound alone, run of 12/05/2023) was more than 10 µM.
